The pIC50 is −log10 of the IC50, conventionally taken in molar units.

pIC50: −log10 of the molar value.

Results on 21 compounds are retold here after patent publication US8637499B2, “Benzoxazepines as inhibitors of PI3K/mTOR and methods of their use and manufacture” (Exelixis, Inc., priority 2009, dated 2014).

Assay [1] concerns the target mTORC1 (mTOR/GbL/Raptor) (Homo sapiens, UniProt P42345). In words: mTOR/GbL/Raptor (mTORC1) ELISA Assay. It counts as biochemical. To be noted: 0.2 nM mTORC1, 10 μM ATP, 50 nM NHis-tagged 4E-BP1; phosphorylation of 4E-BP1; read-out: IC50. The procedure:
mTOR/GbL/Raptor (mTORC1) ELISA Assay
The measurement of mTORC1 enzyme activity was performed in an ELISA assay format following the phosphorylation of 4E-BP1 protein. All experiments were performed in the 384-well format. Generally, 0.5 μL DMSO containing varying concentrations of the test compound was mixed with 15 μL enzyme solution. Kinase reactions were initiated with the addition of 15 μL of substrates-containing solution. The assay conditions were as follows; 0.2 nM mTORC1, 10 μM ATP and 50 nM NHis-tagged 4E-BP1 in 20 mM Hepes, pH 7.2, 1 mM DTT, 50 mM NaCl, 10 mM MnCl2, 0.02 mg/mL BSA, 0.01% CHAPS, 50 mM β-glycerophosphate. Following an incubation of 120 minutes at ambient temperature, 20 μL of the reaction volume was transferred to a Ni-Chelate-coated 384-well plate. The binding step of the 4E-BP1 protein proceeded for 60 minutes, followed by washing 4 times each with 50 μL of Tris-buffered saline solution (TBS). Anti-phospho-4E-BP1 rabbit-IgG (20 μL, 1:5000) in 5% BSA-TBST (0.2% Tween-20 in TBS) was added and further incubated for 60 minutes. Incubation with a secondary HRP-tagged anti-IgG was similarly performed after washing off the primary antibody (4 washes of 50 μL). Following the final wash step with TBST, 20 μL of SuperSignal ELISA Femto (Pierce Biotechnology) was added and the luminescence measured using an EnVision plate reader.
(In general: An ELISA detects its analyte on a solid surface through an enzyme-linked reagent.)

Assay [2] has as its target PI3Kα (Homo sapiens, UniProt P42336). Put plainly: PI3K Biochemical Assays (ATP consumption, luciferase-luciferin chemiluminescence). To be noted: PI3Kα 1.5 nM, ATP 1 μM, PIP2 10 μM; percent of ATP consumed. How it is done:
PI3Kα activity is measured as the percent of ATP consumed following the kinase reaction using luciferase-luciferin-coupled chemiluminescence. Reactions were conducted in 384-well white, medium binding microtiter plates (Greiner). Kinase reactions were initiated by combining test compounds, ATP, substrate (PIP2), and kinase in a 20 μL volume in a buffer solution. The standard PI3Kalpha assay buffer is composed 50 mM Tris, pH 7.5, 1 mM EGTA, 10 mM MgCl2, 1 mM DTT and 0.03% CHAPS. The standard assay concentrations for enzyme, ATP, and substrate are 1.5 nM, 1 μM, and 10 μM, respectively. The reaction mixture was incubated at ambient temperature for approximately 2 h. Following the kinase reaction, a 10 μL aliquot of luciferase-luciferin mix (Promega Kinase-Glo) was added and the chemiluminescence signal measured using a Victor2 plate reader (Perkin Elmer). Total ATP consumption was limited to 40-60% and IC50 values of control compounds correlate well with literature references. Substituting PI3Kα with PI3KIβ, […], or […], the inhibitory activity of the compounds for the other isoforms of I3K were measured.

Sequence of PI3Kα (P42336 whole entry): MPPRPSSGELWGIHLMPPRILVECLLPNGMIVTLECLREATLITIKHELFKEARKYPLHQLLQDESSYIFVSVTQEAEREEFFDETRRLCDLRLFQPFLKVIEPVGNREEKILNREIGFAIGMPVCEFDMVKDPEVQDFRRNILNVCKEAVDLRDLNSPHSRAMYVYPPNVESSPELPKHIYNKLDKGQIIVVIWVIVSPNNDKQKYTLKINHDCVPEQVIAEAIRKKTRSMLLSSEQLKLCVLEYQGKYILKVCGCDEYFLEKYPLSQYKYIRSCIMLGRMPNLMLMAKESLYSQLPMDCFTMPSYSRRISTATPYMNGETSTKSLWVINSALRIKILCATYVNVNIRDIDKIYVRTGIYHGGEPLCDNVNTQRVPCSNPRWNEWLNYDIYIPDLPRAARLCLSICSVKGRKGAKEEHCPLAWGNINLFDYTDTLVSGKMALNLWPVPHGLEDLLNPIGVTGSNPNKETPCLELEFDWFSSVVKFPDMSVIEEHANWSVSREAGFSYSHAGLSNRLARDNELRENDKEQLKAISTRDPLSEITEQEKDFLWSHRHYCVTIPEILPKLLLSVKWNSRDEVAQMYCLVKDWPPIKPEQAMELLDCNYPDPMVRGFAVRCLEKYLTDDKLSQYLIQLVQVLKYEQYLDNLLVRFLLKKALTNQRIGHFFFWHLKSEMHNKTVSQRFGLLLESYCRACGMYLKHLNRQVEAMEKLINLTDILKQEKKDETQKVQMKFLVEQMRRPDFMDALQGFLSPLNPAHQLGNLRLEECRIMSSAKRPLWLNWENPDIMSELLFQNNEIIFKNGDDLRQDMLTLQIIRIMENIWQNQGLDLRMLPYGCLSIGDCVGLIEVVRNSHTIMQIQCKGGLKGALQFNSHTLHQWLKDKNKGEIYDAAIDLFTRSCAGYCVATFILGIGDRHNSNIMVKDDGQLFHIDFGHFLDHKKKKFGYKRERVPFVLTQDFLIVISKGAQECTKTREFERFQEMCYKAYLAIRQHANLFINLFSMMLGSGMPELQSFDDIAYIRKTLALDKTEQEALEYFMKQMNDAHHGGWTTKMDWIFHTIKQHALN
Sequence of PI3Kα (P27986 whole entry partner): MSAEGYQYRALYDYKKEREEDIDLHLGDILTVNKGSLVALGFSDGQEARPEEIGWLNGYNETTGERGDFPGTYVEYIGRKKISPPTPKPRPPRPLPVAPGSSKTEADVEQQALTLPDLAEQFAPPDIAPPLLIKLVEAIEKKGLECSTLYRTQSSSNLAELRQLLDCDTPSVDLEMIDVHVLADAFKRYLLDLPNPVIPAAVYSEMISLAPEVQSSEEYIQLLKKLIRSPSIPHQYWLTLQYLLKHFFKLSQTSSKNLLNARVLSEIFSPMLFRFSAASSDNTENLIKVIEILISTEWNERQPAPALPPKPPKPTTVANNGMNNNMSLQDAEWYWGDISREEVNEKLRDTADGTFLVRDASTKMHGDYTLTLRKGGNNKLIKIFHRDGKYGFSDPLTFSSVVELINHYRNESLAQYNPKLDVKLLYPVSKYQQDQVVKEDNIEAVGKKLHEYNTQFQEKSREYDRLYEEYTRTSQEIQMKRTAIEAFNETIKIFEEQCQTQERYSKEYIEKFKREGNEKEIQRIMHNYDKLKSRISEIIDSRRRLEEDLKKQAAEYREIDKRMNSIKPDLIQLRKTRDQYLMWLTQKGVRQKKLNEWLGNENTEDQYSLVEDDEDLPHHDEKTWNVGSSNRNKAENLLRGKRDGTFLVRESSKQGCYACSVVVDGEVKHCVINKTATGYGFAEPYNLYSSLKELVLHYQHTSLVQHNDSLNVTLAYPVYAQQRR

Consider `Nc1nc2ccc(-c3ccc4c(c3)CN(C(=O)N3CCC(=O)CC3c3ccc(F)c(F)c3)CCO4)cc2[nH]1` (stereo not drawn) [Compound 27, 1-{[7-(2-amino-1H-benzimidazol-6-yl)-2,3-dihydro-1,4-benzoxazepin-4(5H)-yl]carbonyl}-2-(3,4-difluorophenyl)piperidin-4-one], for which the pIC50 in assay [1] was not below 7.30; in assay [2], 6.70 to 7.12.
The matching figures for `CC1CCN(C(=O)N2CCOc3ccc(-c4ccc(-c5ncc[nH]5)cc4)cc3C2)CC1` [Compound 60, 7-[4-(1H-imidazol-2-yl)phenyl]-4-[(4-methylpiperidin-1-yl)carbonyl]-2,3,4,5-tetrahydro-1,4-benzoxazepine]: not below 7.30 and not below 7.12.
For `Cc1nc2ccc(-c3ccc4c(c3)CN(C(=O)N3CCCCC3c3cc(F)cc(F)c3)CCO4)cc2[nH]1` (stereo not drawn) [Compound 130, 4-{[2-(3,5-difluorophenyl)piperidin-1-yl]carbonyl}-7-(2-methyl-1H-benzimidazol-6-yl)-2,3,4,5-tetrahydro-1,4-benzoxazepine], the pIC50 in assay [1] was not below 7.30; in assay [2], not below 7.12.
`O=C1CCN(C(=O)N2CCOc3ccc(-c4ccc(-c5ncc[nH]5)cc4)cc3C2)C(c2ccc(F)c(F)c2)C1` (stereo not drawn) [Compound 53, 2-(3,4-difluorophenyl)-1-({7-[4-(1H-imidazol-2-yl)phenyl]-2,3-dihydro-1,4-benzoxazepin-4(5H)-yl}carbonyl)piperidin-4-one]: the pIC50 is not below 7.30 in assay [1] and not below 7.12 in assay [2].
Consider `Cc1nc2ccc(-c3ccc4c(c3)CN(C(=O)N3CCCCCC3)CCO4)cc2[nH]1` [Compound 89, 4-(azepan-1-ylcarbonyl)-7-(2-methyl-1H-benzimidazol-6-yl)-2,3,4,5-tetrahydro-1,4-benzoxazepine], for which the negative logarithm of the IC50 (pIC50) is 6.15 to 6.60 in assay [1] and 6.00 to 6.30 in assay [2].
The matching figures for `Cc1nc2ccc(-c3ccc4c(c3)CN(C(=O)N3CC[C@H](CF)C[C@@H]3c3ccc(F)c(F)c3)CCO4)cc2[nH]1` (racemic) [Compound 147, (±)-4-{[(2R,4S)-2-(3,4-difluorophenyl)-4-(fluoromethyl)piperidin-1-yl]carbonyl}-7-(2-methyl-1H-benzimidazol-6-yl)-2,3,4,5-tetrahydro-1,4-benzoxazepine]: 6.15 to 6.60 and 5.52 to 6.00.
The matching figures for `Cc1nc2ccc(-c3ccc4c(c3)CN(C(=O)N3CCCC3c3ccccc3)CCO4)cc2[nH]1` (stereo not drawn) [Compound 95, 7-(2-methyl-1H-benzimidazol-6-yl)-4-[(2-phenylpyrrolidin-1-yl)carbonyl]-2,3,4,5-tetrahydro-1,4-benzoxazepine]: 6.60 to 7.30 and 6.00 to 6.30.
For `O=C(N1CCOc2ccc(-c3ccc(-c4ncc[nH]4)cc3)cc2C1)N1[C@@H]2CC[C@H]1C[C@](O)(C(F)(F)F)C2` [Compound 59, 8-({7-[4-(1H-imidazol-2-yl)phenyl]-2,3-dihydro-1,4-benzoxazepin-4(5H)-yl}carbonyl)-3-(trifluoromethyl)-8-azabicyclo[3.2.1]octan-3-(endo)-ol], the pIC50 in assay [1] was not below 7.30; in assay [2], not below 7.12.
The matching figures for `Cc1nc2ccc(-c3ccc4c(c3)CN(C(=O)N(C)Cc3ccccc3)CCO4)cc2[nH]1` [Compound 92, N-methyl-7-(2-methyl-1H-benzimidazol-6-yl)-N-(phenylmethyl)-2,3-dihydro-1,4-benzoxazepine-4(5H)-carboxamide]: 6.60 to 7.30 and 6.00 to 6.30.
Turning to `COC(=O)Nc1nc2ccc(-c3ccc4c(c3)CN(C(=O)N3[C@@H]5CC[C@H]3C[C@](O)(C(F)(F)F)C5)CCO4)cc2[nH]1` [Compound 20, methyl [6-(4-{[3-(endo)-hydroxy-3-(trifluoromethyl)-8-azabicyclo[3.2.1]oct-8-yl]carbonyl}-2,3,4,5-tetrahydro-1,4-benzoxazepin-7-yl)-1H-benzimidazol-2-yl]carbamate], the pIC50 is not below 7.30 in assay [1] and not below 7.12 in assay [2].
Consider `COC(=O)Nc1nc2ncc(-c3ccc4c(c3)CN(C(=O)N3CCC(CCF)CC3)CCO4)cc2[nH]1` [Compound 35, methyl [6-(4-{[4-(2-fluoroethyl)piperidin-1-yl]carbonyl}-2,3,4,5-tetrahydro-1,4-benzoxazepin-7-yl)-1H-imidazo[4,5-b]pyridin-2-yl]carbamate], for which the pIC50 in assay [1] was not below 7.30; in assay [2], not below 7.12.
`Nc1nc2ncc(-c3ccc4c(c3)CN(C(=O)N3CCC(CF)CC3)CCO4)cc2[nH]1` [Compound 45, 6-(4-{[4-(fluoromethyl)piperidin-1-yl]carbonyl}-2,3,4,5-tetrahydro-1,4-benzoxazepin-7-yl)-1H-imidazo[4,5-b]pyridin-2-amine]: the pIC50 in assay [1] was not below 7.30; in assay [2] it was not below 7.12.
Regarding `Cc1nc2ccc(-c3ccc4c(c3)CN(C(=O)N3CCC5CCCCC5C3)CCO4)cc2[nH]1` (stereo not drawn) [Compound 156, 7-(2-methyl-1H-benzimidazol-6-yl)-4-(octahydroisoquinolin-2(1H)-ylcarbonyl)-2,3,4,5-tetrahydro-1,4-benzoxazepine], the results for the pIC50 in assay [1] and in assay [2] were 6.60 to 7.30 and 6.30 to 6.70, respectively.
In the case of `N#CC1CCN(C(=O)N2CCOc3ccc(-c4ccc(-c5ncc[nH]5)nc4)cc3C2)CC1` [Compound 63, 1-({7-[6-(1H-imidazol-2-yl)pyridin-3-yl]-2,3-dihydro-1,4-benzoxazepin-4(5H)-yl}carbonyl)piperidine-4-carbonitrile], the values for the pIC50 in assay [1] and in assay [2] were 6.60 to 7.30 and 6.00 to 6.30, respectively.
Consider `O=C1CCN(C(=O)N2CCOc3ccc(-c4ccc(-c5ncc[nH]5)cc4)cc3C2)[C@H](c2ccc(F)cc2)C1` [Compound 57, (2S)-2-(4-fluorophenyl)-1-({7-[4-(1H-imidazol-2-yl)phenyl]-2,3-dihydro-1,4-benzoxazepin-4(5H)-yl}carbonyl)piperidin-4-one], for which the pIC50 was not below 7.30 in assay [1] and not below 7.12 in assay [2].
For `Cc1nc2ccc(-c3ccc4c(c3)CN(C(=O)N3CCCC(Cc5ccccc5)C3)CCO4)cc2[nH]1` (stereo not drawn) [Compound 106, 7-(2-methyl-1H-benzimidazol-6-yl)-4-{[3-(phenylmethyl)piperidin-1-yl]carbonyl}-2,3,4,5-tetrahydro-1,4-benzoxazepine], the pIC50 in assay [1] is 6.15 to 6.60; in assay [2], 5.52 to 6.00.
Turning to `Nc1nc2ncc(-c3ccc4c(c3)CN(C(=O)N3CCC(=O)CC3c3cccc(F)c3)CCO4)cc2[nH]1` (stereo not drawn) [Compound 48, 1-{[7-(2-amino-1H-imidazo[4,5-b]pyridin-6-yl)-2,3-dihydro-1,4-benzoxazepin-4(5H)-yl]carbonyl}-2-(3-fluorophenyl)piperidin-4-one], the negative logarithm of the IC50 (pIC50) in assay [1] is not below 7.30; in assay [2], not below 7.12.
As for `Cc1nc2ccc(-c3ccc4c(c3)CN(C(=O)N3CCN(c5cnccn5)CC3)CCO4)cc2[nH]1` [Compound 161, 7-(2-methyl-1H-benzimidazol-6-yl)-4-[(4-pyrazin-2-ylpiperazin-1-yl)carbonyl]-2,3,4,5-tetrahydro-1,4-benzoxazepine], the pIC50 was 6.15 to 6.60 in assay [1] and 6.30 to 6.70 in assay [2].
The like results for `COC(=O)Nc1nc2ccc(-c3ccc4c(c3)CN(C(=O)N3CCC(=O)CC3c3cccc(F)c3)CCO4)cc2[nH]1` (stereo not drawn) [Compound 11, methyl [6-(4-{[2-(3-fluorophenyl)-4-oxopiperidin-1-yl]carbonyl}-2,3,4,5-tetrahydro-1,4-benzoxazepin-7-yl)-1H-benzimidazol-2-yl]carbamate] were, in that order, 6.60 to 7.30 and not below 7.12.
In the case of `Nc1nc2ccc(-c3ccc4c(c3)CN(C(=O)N3CCC(=O)CC3c3cccc(F)c3)CCO4)cc2[nH]1` (stereo not drawn) [Compound 28, 1-{[7-(2-amino-1H-benzimidazol-6-yl)-2,3-dihydro-1,4-benzoxazepin-4(5H)-yl]carbonyl}-2-(3-fluorophenyl)piperidin-4-one], the pIC50 was not below 7.30 in assay [1] and 6.70 to 7.12 in assay [2].
On to `Cc1nc2ccc(-c3ccc4c(c3)CN(C(=O)N(C)[C@H](C)c3ccccc3)CCO4)cc2[nH]1` [Compound 109, N-methyl-7-(2-methyl-1H-benzimidazol-6-yl)-N-[(1R)-1-phenylethyl]-2,3-dihydro-1,4-benzoxazepine-4(5H)-carboxamide], for which the pIC50 in assay [1] is not below 7.30; in assay [2] it was 6.70 to 7.12.
